Measurements as given in patent publication US11702422B2, “Imidazopyridazines as modulators of IL-17” (Janssen Pharmaceutica NV, priority 2020, dated 2023).

Columns and labels:
[1] = target: IL-17A(FLAG-Tagged): IL-17RA(His-Tagged) (Homo sapiens, UniProt Q16552, K93Q); assay: IL-17A(FLAG-Tagged): IL-17RA(His-Tagged) Binding Disruption Eu-HTRF Assay; conditions: IL-17A/IL-17RA binding disruption, simple average if tested more than once
Procedure, shortened: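 IC50 comes from a one-site competition fit of the HTRF 665/620 nm ratio. Compound dilutions (2-fold, 22 points) were held 1 h rt with FLAG-tagged IL-17A dimer, then His-tagged IL-17RA plus Eu-cryptate anti-FLAG and D2 anti-His antibodies were added for 2 h rt.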

[2] = tested on: IL-17A-induced G-CSF production in human normal keratinocyte (NHK); assay: NHK Assay: IL-17A-induced G-CSF production in human normal keratinocytes; type: cell-based; conditions: Homo sapiens, Keratinocyte, 24 h, adult normal human keratinocytes, IL-17A 5 ng/mL, simple average if tested more than once
Procedure, shortened: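 Adult normal human keratinocytes were seeded at 3000-4000 cells/well. Recombinant human IL-17A was pre-incubated 1 h at rt with titrated compound, then added to cells (final 5 ng/mL IL-17A, 0.2% DMSO, 5% FBS) for 24 h at 37° C. Supernatant G-CSF was measured by HTRF against a standard curve to give IC50.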

[3] = tested on: patients with PsA; conditions: PsA with inadequate response to conventional synthetic disease-modifying antirheumatic drug; cited from earlier work
[4] = tested on: patients with moderate-to-severe HS; conditions: seven of nine patients, open-label pilot-trial; cited from earlier work
[5] = tested on: SCIDhu model of human myeloma; conditions: weekly for 4 weeks after first detection of tumor, compared to isotype control mice; cited from earlier work
[6] = tested on: patients with active PsA; conditions: compared with anti-TNFα antibodies; cited from earlier work

UniProt Q16552, sequence (Q16552 with tags, fused parts or gaps K93Q): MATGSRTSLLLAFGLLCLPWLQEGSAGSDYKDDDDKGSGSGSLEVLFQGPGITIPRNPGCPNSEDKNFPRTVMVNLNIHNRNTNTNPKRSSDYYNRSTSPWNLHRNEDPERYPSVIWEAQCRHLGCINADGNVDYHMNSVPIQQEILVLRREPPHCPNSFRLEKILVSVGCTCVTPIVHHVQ

## Cc1nonc1C(=O)N[C@@H](CC(C)(C)C(F)(F)F)c1cn2ncc([C@H](NC(=O)CC3CC(F)(F)C3)C3CC3)cc2n1 [Example 544, N—((S)-1-(7-((R)-Cyclopropyl(2-(3,3-difluorocyclobutyl)acetamido)methyl)imidazo[1,2-b]pyridazin-2-yl)-4,4,4-trifluoro-3,3-dimethylbutyl)-4-methyl-1,2,5-oxadiazole-3-carboxamide]
[1]
  IC50: 120 nM
[2]
  IC50: 240 nM

## [2H]C([2H])([2H])C([2H])([2H])n1nccc1C(=O)N[C@@H](CC(C)(C)C(F)(F)F)c1cn2ncc([C@H](NC(=O)CC3CC(F)(F)C3)C3CC3)cc2n1 [Example 545, N—((S)-1-(7-((R)-Cyclopropyl(2-(3,3-difluorocyclobutyl)acetamido)methyl)imidazo[1,2-b]pyridazin-2-yl)-4,4,4-trifluoro-3,3-dimethylbutyl)-1-(ethyl-d5)-1H-pyrazole-5-carboxamide]
[1]
  IC50: 170 nM
[2]
  IC50: 150 nM

## ixekizumab
[3]
  simultaneous improvement of joint and skin disease (ACR50 and PASI100): superior to adalimumab

## secukinumab
[4]
  patients achieving HiSCR: 78%
[5]
  bone damage: reduced bone damage
  tumor growth: significant inhibition of tumor growth
[6]
  ACR 20/50/70 response rates: higher ACR 20/50/70 response rates
